Results on 23 compounds are retold here after US11396517B1, “Exo-aza spiro inhibitors of menin-MLL interaction” (Janssen Pharmaceutica NV, priority 2017, dated 2022).

One assay relates to MOLM14. Kind of assay: Proliferation assay B (spheroid assay) MOLM14. In kind it is cell-based, human. The conditions noted are these: MOLM14 cells, confluence at day 8, absolute IC50, read-out: (3b) Spheroid assay MOLM14 (IC50(μM)) Assay B. The method in brief:
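IC50 derived from % effect on day-8 imaged confluence, scaled between DMSO-treated cells (high) and 1 μM staurosporine (low), using a variable-slope fit constrained 0-100%. Cells seeded as spheroids in ultra-low-attachment plates and exposed to compound for 8 days, 0.3% DMSO.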

Another assay has as its system MV-4-11. In words: Proliferation assay B (spheroid assay) MV-4-11. The class given is cell-based, human. The conditions noted are these: MV-4-11 cells, confluence at day 8, absolute IC50, read-out: (3b) Spheroid assay MV-4--11 (IC50(μM)) Assay B. On the procedure: 3b) Proliferation Assay B
The anti-proliferative effect of menin/MLL protein/protein interaction inhibitor test compounds was assessed in human leukemia cell lines. The cell lines MV-4-11 and MOLM14 harbor MILL translocations and express the MILL fusion proteins MLL-AF4 and MLL-AF9, respectively, as well as the wildtype protein from the second allele. […] K562 was used as a control cell line containing two MLL wildtype alleles in order to exclude compounds that display general cytotoxic effects.
MV-4-11 and MOLM14 were cultured in RPMI-1640 (Sigma Aldrich) supplemented with 10% fetal bovine serum (HyClone), 2 mM L-glutamine (Sigma Aldrich) and 50 μg/ml gentamycin (Gibco). K562 were propagated in RPMI-1640 (Sigma Aldrich) supplemented with 20% fetal bovine serum (HyClone), 2 mM L-glutamine (Sigma Aldrich) and 50 μg/ml gentamycin (Gibco).
In order to assess the anti-proliferative effects, 1,500 MV-4-11, 300 MOLM14 cells or 750 K562 cells were seeded in 200 μl media per well in 96-well round bottom, ultra-low attachment plates (Costar, catalogue number 7007). Cell seeding numbers were chosen based on growth curves to ensure linear growth throughout the experiment. Test compounds were added at different concentrations and the DMSO content was normalized to 0.3%. Cells were incubated for 8 d at 37° C. and 5% CO2. Spheroid like growth was measured in real-time by live-cell imaging (IncuCyteZOOM, Essenbio, 4× objective) acquiring images at day 8. Confluence (%) as a measure of spheroid size was determined using an integrated analysis tool.
In order to determine the effect of the test compounds over time, the confluence in each well as a measure of spheroid size, was calculated. Confluence […] at the beginning of the experiment (t=0) was used as baseline for the calculation.
Absolute IC50 values were calculated as percent change in confluence as follows:
LC=Low Control: cells treated with 1 μM of the cytotoxic agent staurosporin
HC=High Control: Mean confluence (%) (DMSO treated cells) % Effect=100−(100*(Sample−LC)/(HC−LC))
To determine the IC50 a curve is fitted to the plot of % Effect vs Log 10 compound concentration using a sigmoidal fit with a variable slope and fixing the maximum to 100% and the minimum to 0%.

The next assay has as its target T1, menin (Homo sapiens, UniProt O00255, T541A).
T1 construct: Menin (a.a. 1-610-6×his tag)
T1 sequence (O00255 with tags, fused parts or gaps T541A): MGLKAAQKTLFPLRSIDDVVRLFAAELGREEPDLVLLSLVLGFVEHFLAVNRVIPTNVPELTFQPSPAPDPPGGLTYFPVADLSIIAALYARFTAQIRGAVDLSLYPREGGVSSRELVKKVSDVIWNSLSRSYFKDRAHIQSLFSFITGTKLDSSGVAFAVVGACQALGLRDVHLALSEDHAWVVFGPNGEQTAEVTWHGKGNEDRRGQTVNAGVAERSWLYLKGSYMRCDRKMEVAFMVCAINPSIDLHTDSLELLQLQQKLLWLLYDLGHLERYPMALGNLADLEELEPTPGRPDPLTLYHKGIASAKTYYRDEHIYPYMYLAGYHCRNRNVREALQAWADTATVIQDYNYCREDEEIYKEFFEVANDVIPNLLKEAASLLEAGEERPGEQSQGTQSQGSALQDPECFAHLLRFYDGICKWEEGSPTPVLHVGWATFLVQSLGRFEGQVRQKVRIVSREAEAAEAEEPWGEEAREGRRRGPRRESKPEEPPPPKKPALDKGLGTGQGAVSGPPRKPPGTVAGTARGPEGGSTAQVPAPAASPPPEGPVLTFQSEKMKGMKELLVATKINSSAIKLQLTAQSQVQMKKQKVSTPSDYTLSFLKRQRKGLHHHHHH
Kind of assay: Menin/MLL homogenous time-resolved fluorescence (HTRF) assay. In kind it is binding. The conditions noted are these: location 2; read-out: (2) location 2 Menin HTRF assay (IC50 (nM)). An outline of the steps:
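Displacement of 75 nM FITC-MBM1 from terbium-cryptate-labeled His-tagged menin 1-610 ([…]) was read as the 520/490 nm HTRF ratio. Compound (11-point, 3-fold series) got 5 min with menin before peptide, then 15 min at ambient; 0.5% DMSO, Tris pH 7.5.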
A general note: Time-resolved FRET reads energy transfer from a long-lived donor to a nearby acceptor.

By IC50 is commonly meant the concentration that gives 50% inhibition.

Where two headings read alike, the source gives them in different places.

As to `Cn1c(=O)[nH]c2ccc(CN[C@@H]3CCC4(C3)CN(c3ncnc5sc(CC(F)(F)F)cc35)C4)cc21` (stereo in doubt) [Compound 110], the IC50 in the assay with MOLM14 (Homo sapiens, MOLM-14, 192 h) turned out to be 1.91 µM; with MV-4-11 (Homo sapiens, MV4-11, 192 h), 0.62 µM; at menin, 5.5 nM.
For `Cn1c(=O)[nH]c2ccc(CN[C@H]3CCC4(C3)CN(c3ncnc5sc(CC(F)(F)F)cc35)C4)cc21` (stereo in doubt) [Compound 111], the IC50 worked out at 3.06 µM in the assay on MOLM14 (Homo sapiens, MOLM-14, 192 h); 0.62 µM in the assay with MV-4-11 (Homo sapiens, MV4-11, 192 h); 65 nM on menin.
Consider `COc1nc(N2CC3(CC[C@H](NCc4cccc(-c5cc[nH]n5)c4)C3)C2)c2cc(CC(F)(F)F)sc2n1` (stereo in doubt) [Compound 116], for which the IC50 in the assay on MOLM14 (Homo sapiens, MOLM-14, 192 h) is 2.32 µM; with MV-4-11 (Homo sapiens, MV4-11, 192 h), 2.06 µM; at menin it was 30.6 nM.
For `CNc1nc(N2CC3(CC[C@@H](NCc4cccc(-c5cc[nH]n5)c4)C3)C2)c2cc(CC(F)(F)F)sc2n1` (stereo in doubt) [Compound 121] the same measures were 1.6 µM, 0.98 µM and 32.7 nM.
The like results for `CNc1nc(N2CC3(CC[C@H](NCc4cccc(-c5cc[nH]n5)c4)C3)C2)c2cc(CC(F)(F)F)sc2n1` (stereo in doubt) [Compound 122] were, in that order, 1.21 µM, 0.44 µM and 49.3 nM.
`N#CCc1ccc(N[C@@H]2CC[C@@]3(CCN(c4ncnc5sc(CC(F)(F)F)cc45)C3)C2)cc1` (stereo in doubt) [Compound 144]: the IC50 in the assay with MOLM14 (Homo sapiens, MOLM-14, 192 h) was 2.77 µM; in the assay with MV-4-11 (Homo sapiens, MV4-11, 192 h) it was 1.4 µM; on menin, 9.3 nM.
As for `N#CCc1ccc(N[C@H]2CC[C@@]3(CCN(c4ncnc5sc(CC(F)(F)F)cc45)C3)C2)cc1` (stereo in doubt) [Compound 145], the IC50 was greater than 3.75 µM with MOLM14 (Homo sapiens, MOLM-14, 192 h); 3.55 µM in the assay on MV-4-11 (Homo sapiens, MV4-11, 192 h); 22.6 nM at menin.
For the compound `N#CCc1ccc(N[C@H]2CC[C@]3(CCN(c4ncnc5sc(CC(F)(F)F)cc45)C3)C2)cc1` (stereo in doubt) [Compound 147], the IC50 with MOLM14 (Homo sapiens, MOLM-14, 192 h) was found to be 2.9 µM; in the assay on MV-4-11 (Homo sapiens, MV4-11, 192 h), 2.07 µM; at menin, 45.3 nM.
In the case of `NC(=O)Cn1c(=O)[nH]c2cc(CNC3CCC4(C3)CN(c3ncnc5sc(CC(F)(F)F)cc35)C4)ccc21` (stereo not drawn) [Compound 53, 2-(2-oxo-5-(((2-(6-(2,2,2-trifluoroethyl)thieno[2,3-d]-pyrimidin-4-yl)-2-azaspiro[3.4]octan-6-yl)amino)methyl)-2,3-dihydro-1H-benzo[d]-imidazol-1-yl)acetamide], the IC50 in the assay on MOLM14 (Homo sapiens, MOLM-14, 192 h) was greater than 3.75 µM; in the assay with MV-4-11 (Homo sapiens, MV4-11, 192 h) it was greater than 3.75 µM; on menin it was 8.7 nM.
Regarding `CNC(=O)c1ccc(NC2CC3(CCN(c4ncnc5sc(CC(F)(F)F)cc45)C3)C2)nc1` (stereo not drawn) [Compound 70], the 50% inhibitory concentration (IC50) in the assay on MOLM14 (Homo sapiens, MOLM-14, 192 h) was determined as 1.08 µM; in the assay on MV-4-11 (Homo sapiens, MV4-11, 192 h), 0.3 µM; on menin, 2.7 nM.
Consider `CN1CCC(Oc2cc(NC3CC4(CCN(c5ncnc6sc(CC(F)(F)F)cc56)C4)C3)ccc2C#N)CC1` (stereo not drawn) [Compound 81], for which the IC50 was found to be 0.65 µM in the assay on MOLM14 (Homo sapiens, MOLM-14, 192 h); 0.43 µM with MV-4-11 (Homo sapiens, MV4-11, 192 h); 6.8 nM on menin.
With `CN1CCC(Nc2cc(NC3CC4(CCN(c5ncnc6sc(CC(F)(F)F)cc56)C4)C3)ccc2C#N)CC1` (stereo not drawn) [Compound 82], the IC50 with MOLM14 (Homo sapiens, MOLM-14, 192 h) stood at 0.93 µM; with MV-4-11 (Homo sapiens, MV4-11, 192 h), 1.14 µM; on menin, 73.6 nM.
The like results for `CNC(=O)c1ccc(NC2CCC3(C2)CN(c2ncnc4sc(CC(F)(F)F)cc24)C3)cc1` (stereo not drawn) [Compound 96] were, in that order, 1.09 µM, 1.02 µM and 43.4 nM.
As for `N#CCc1ccc(NC2CCC3(CCN(c4ncnc5sc(CC(F)(F)F)cc45)C3)C2)cc1F` (stereo not drawn) [Compound 129], the IC50 in the assay on MOLM14 (Homo sapiens, MOLM-14, 192 h) is greater than 3.75 µM; in the assay with MV-4-11 (Homo sapiens, MV4-11, 192 h) it was 3.81 µM; at menin, 34.3 nM.
Consider `CC(C)(C#N)c1ccc(NC2CCC3(CCN(c4ncnc5sc(CC(F)(F)F)cc45)C3)C2)cc1` (stereo not drawn) [Compound 130], for which the IC50 in the assay on MOLM14 (Homo sapiens, MOLM-14, 192 h) was greater than 3.75 µM; in the assay with MV-4-11 (Homo sapiens, MV4-11, 192 h) it was greater than 3.75 µM; at menin it was 67.1 nM.
Take `N#CC1(c2ccc(NC3CCC4(CCN(c5ncnc6sc(CC(F)(F)F)cc56)C4)C3)cc2)CC1` (stereo not drawn) [Compound 131]: the IC50 is greater than 3.75 µM in the assay on MOLM14 (Homo sapiens, MOLM-14, 192 h); 3.3 µM in the assay with MV-4-11 (Homo sapiens, MV4-11, 192 h); 49.1 nM at menin.
Consider `CNC(=O)c1ccc(NC2CCC3(CCN(c4ncnc5sc(CC(F)(F)F)cc45)C3)C2)cc1` (stereo not drawn) [Compound 133], for which the IC50 in the assay on MOLM14 (Homo sapiens, MOLM-14, 192 h) is greater than 3.75 µM; in the assay on MV-4-11 (Homo sapiens, MV4-11, 192 h), 1.41 µM; on menin it was 4.1 nM.
As to `FC(F)(F)Cc1cc2c(N3CCC4(CC(Nc5ccccn5)C4)C3)ncnc2s1` (stereo not drawn) [Compound 151], the IC50 in the assay with MOLM14 (Homo sapiens, MOLM-14, 192 h) worked out at 2.48 µM; in the assay on MV-4-11 (Homo sapiens, MV4-11, 192 h), 2.03 µM; at menin, 31 nM.
For the compound `FC(F)(F)Cc1cc2c(N3CCC4(CC(Nc5ccncc5)C4)C3)ncnc2s1` (stereo not drawn) [Compound 154], the IC50 with MOLM14 is 2.35 µM; in the assay with MV-4-11, 0.67 µM; at menin it was 13 nM.
On to `FC(F)(F)Cc1cc2c(N3CC4(CCC(NC5(c6ccccc6)CC5)C4)C3)ncnc2s1` (stereo not drawn) [Compound 282], for which the half-inhibitory concentration (IC50) in the assay on MOLM14 (Homo sapiens, MOLM-14, 192 h) was greater than 3.75 µM; in the assay with MV-4-11 (Homo sapiens, MV4-11, 192 h), greater than 3.75 µM; on menin it was 92.8 nM.
For `Cc1cc2ccc(NC3CCC4(C3)CN(c3ncnc5sc(CC(F)(F)F)cc35)C4)cc2[nH]1` (stereo not drawn) [Compound 289], the IC50 was greater than 3.75 µM in the assay with MOLM14 (Homo sapiens, MOLM-14, 192 h); greater than 3.75 µM in the assay on MV-4-11 (Homo sapiens, MV4-11, 192 h); 42.7 nM at menin.
With `O=c1[nH]c2ccc(NC3CCC4(C3)CN(c3ncnc5sc(CC(F)(F)F)cc35)C4)cc2o1` (stereo not drawn) [Compound 295], the IC50 in the assay with MOLM14 (Homo sapiens, MOLM-14, 192 h) was greater than 3.75 µM; in the assay with MV-4-11 (Homo sapiens, MV4-11, 192 h), greater than 3.75 µM; on menin, 97.7 nM.
Turning to `O=c1[nH]c2ccc(NC3CCC4(C3)CN(c3ncnc5sc(CC(F)(F)F)cc35)C4)cc2[nH]1` (stereo not drawn) [Compound 298], the IC50 in the assay on MOLM14 (Homo sapiens, MOLM-14, 192 h) was greater than 3.75 µM; with MV-4-11 (Homo sapiens, MV4-11, 192 h), greater than 3.75 µM; on menin, 54.3 nM.
